According to patent US12643912B2, “Macrocyclic compounds, a process for their preparation and pharmaceutical compositions containing them” (LES LABORATOIRES SERVIER, priority 2020, dated 2026):

Key:
[1] = test system: Nrf2 (Keap1-NRF2 nuclear translocation); assay: U2OS translocation assay (PathHunter U2OS Keap1-NRF2 Nuclear Translocation Cell Line); type: cell-based; conditions: Homo sapiens, U2OS, 3 h, read-out: CELLULAR U2OS EC50 (nM), U2OS Keap1-NRF2 nuclear translocation cells, 3 h incubation, luminescence, normalized between 1% DMSO and 10 μM andrographolide
Outline: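 Enzyme-fragment complementation read-out: luminescence after 60 min of detection reagent at room temperature, following a 3 h, 37° C compound exposure of engineered U2OS Keap1-NRF2 translocation cells (1% FBS medium). Signal scaled from 1% DMSO basal to 10 μM andrographolide maximum.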

Keap1 (A321-C624) (h) = biological target: T1, Keap1 (A321-C624) (h) (Homo sapiens, UniProt Q14145); assay: Surface Plasmon Resonance binding assay to Kelch domain of KEAP1; conditions: Biacore T200, 25° C., immobilized His-Thromb-KEAP1(A321-C624), single cycle kinetics, KD=kd/ka from 1:1 fit; read-out: Keap1 (A321-C624) (h) direct/SPR (KD)
T1 construct: His-Thromb-KEAP1(A321-C624) acquired from Novalix (batch PU-P01) was immobilized covalently by amine coupling; His tag (N); thrombin cleavage site (Thromb) (N); purchased Novalix batch PU-P01
Outline: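 His-Thromb-KEAP1(A321-C624) amine-coupled on CM5 chip to 1250 RU; amine blank reference. Run at 25° C in HEPES pH 7.4, 150 mM NaCl, 3 mM EDTA, 1 mM TCEP, 0.05% P20, 5% DMSO; 180 s association, 720 s dissociation, 50 μL/min. KD = kd/ka from 1:1 kinetic fit, double-referenced, DMSO solvent-corrected.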

T1 sequence (Q14145 321-624): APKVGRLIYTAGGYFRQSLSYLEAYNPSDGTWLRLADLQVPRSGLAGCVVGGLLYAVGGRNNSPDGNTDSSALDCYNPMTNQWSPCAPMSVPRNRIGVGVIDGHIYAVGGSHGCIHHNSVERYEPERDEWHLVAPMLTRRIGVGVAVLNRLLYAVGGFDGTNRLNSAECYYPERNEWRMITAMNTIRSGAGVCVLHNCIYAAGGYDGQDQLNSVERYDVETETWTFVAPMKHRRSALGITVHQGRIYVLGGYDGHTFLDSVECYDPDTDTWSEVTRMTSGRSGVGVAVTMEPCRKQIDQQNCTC

SMILES | Kd (Keap1 (A321-C624) (h)) [nM] | EC50 [1] [nM]
Cc1ccc2cc1CN1Cc3cc(ccc3OS1(=O)=O)N(C)CCCCn1nnc3c(C)c(ccc31)C2CC(=O)O (stereo not shown) [Example 42, [4,21,31-Trimethyl-27,27-dioxo-26-oxa-27λ^6-thia-1,14,15,16,21-pentaazahexacyclo[20.5.3.1^3,70.1^9,130.0^12,160.0^25,29]dotriaconta-3(32),4,6,9(31),10,12,14,22,24,29-decaen-8-yl]acetic acid] | 1.57 | 21.4
Cc1ccc2cc1CN1Cc3cc(ccc3OS1(=O)=O)N(C)C(=O)CCCn1nnc3c(C)c(ccc31)C2CC(=O)O (stereo not shown) [Example 43, [4,21,31-Trimethyl-20,27,27-trioxo-26-oxa-27λ^6-thia-1,14,15,16,21-pentaazahexacyclo[20.5.3.1^3,70.1^9,130.0^12,160.0^25,29]dotriaconta-3(32),4,6,9(31),10,12,14,22,24,29-decaen-8-yl]acetic acid] | 2.92 | 570
Cc1ccc2cc1CN1Cc3cc(ccc3OS1(=O)=O)OC[C@H](O)CCn1nnc3c(C)c(ccc31)C2CC(=O)O (stereo partly drawn) [Example 44, [(19R)-19-hydroxy-4,31-dimethyl-27,27-dioxo-21,26-dioxa-27λ^6-thia-1,14,15,16-tetraazahexacyclo[20.5.3.1^3,70.1^9,130.0^12,160.0^25,29]dotriaconta-3(32),4,6,9(31),10,12,14,22,24,29-decaen-8-yl]acetic acid] | 0.146 | 292
Cc1ccc2cc1CN1Cc3cc(ccc3OS1(=O)=O)OCCCCn1nnc3c(C)c(cc(Cl)c31)[C@@H]2CC(=O)O [Example 50, [(8R)-11-Chloro-4,31-dimethyl-27,27-dioxo-21,26-dioxa-27λ^6-thia-1,14,15,16-tetraazahexacyclo[20.5.3.1^3,70.1^9,130.0^12,160.0^25,29]dotriaconta-3(32),4,6,9(31),10,12,14,22,24,29-decaen-8-yl]acetic acid] | 5.97 | 139
Cc1ccc2cc1CN1Cc3c(ccc(c3Cl)OCCCCn3nnc4c(C)c(cc(Cl)c43)[C@@H]2CC(=O)O)OS1(=O)=O [Example 51, [(8R)-11,30-Dichloro-4,31-dimethyl-27,27-dioxo-21,26-dioxa-27λ^6-thia-1,14,15,16-tetraazahexacyclo[20.5.3.1^3,70.1^9,130.0^12,160.0^25,29]dotriaconta-3(32),4,6,9(31),10,12,14,22,24,29-decaen-8-yl]acetic acid] | 2.03 | 103
Cc1ccc2cc1CN1Cc3cc(c(Cl)cc3OS1(=O)=O)OCCCCn1nnc3c(C)c(cc(Cl)c31)[C@@H]2CC(=O)O [Example 52, [(8R)-11,23-Dichloro-4,31-dimethyl-27,27-dioxo-21,26-dioxa-27λ^6-thia-1,14,15,16-tetraazahexacyclo[20.5.3.1^3,70.1^9,130.0^12,160.0^25,29]dotriaconta-3(32),4,6,9(31),10,12,14,22,24,29-decaen-8-yl]acetic acid] | 8.86 | 180
Cc1ccc2cc1[C@@H](C)N1Cc3cc(ccc3OS1(=O)=O)OCCC1(CCOCC1)Cn1nnc3c(C)c(ccc31)C2CC(=O)O (stereo partly drawn) [Example 68, [(2R)-2,4,31-Trimethyl-27,27-dioxo-27λ^6-spiro[21,26-dioxa-27-thia-1,14,15,16-tetraazahexacyclo[20.5.3.1^3,70.1^9,130.0^12,160.0^25,29]dotriaconta-3(32),4,6,9(31),10,12,14,22,24,29-decaene-18,4′-oxan]-8-yl]acetic acid] | 8.96 | 38.3

Continued, in another order:

Kd (Keap1 (A321-C624) (h)) [nM] | SMILES | EC50 [1] [nM]
22.3 | COc1ccc2cc1[C@@H](C)N1Cc3cc(ccc3OS1(=O)=O)OCCCCCCn1nnc3c(C)c(ccc31)[C@@H]2CC(=O)O [Example 40b, [(2R,8R)-4-methoxy-2,33-dimethyl-29,29-dioxo-23,28-dioxa-29λ^6-thia-1,14,15,16-tetraazahexacyclo[22.5.3.1^3,70.1^9,130.0^12,160.0^27,31]tetratriaconta-3(34),4,6,9(33),10,12,14,24,26,31-decaen-8-yl]acetic acid] | 353
2 | [2H]C([2H])(C(=O)O)[C@@H]1c2ccc(C)c(c2)CN2Cc3cc(ccc3OS2(=O)=O)OCCCCn2nnc3c(C)c1ccc32 [Example 55a, [(8R)-4,31-Dimethyl-27,27-dioxo-21,26-dioxa-27λ^6-thia-1,14,15,16-tetraazahexacyclo[20.5.3.1^3,70.1^9,130.0^12,160.0^25,29]dotriaconta-3(32),4,6,9(31),10,12,14,22,24,29-decaen-8-yl](^2H2)acetic acid] | 183
2.5 | [2H]C([2H])(C(=O)O)[C@H]1c2ccc(C)c(c2)CN2Cc3cc(ccc3OS2(=O)=O)OCCCCn2nnc3c(C)c1ccc32 [Example 55b, [(8S)-4,31-Dimethyl-27,27-dioxo-21,26-dioxa-27λ^6-thia-1,14,15,16-tetraazahexacyclo[20.5.3.1^3,70.1^9,130.0^12,160.0^25,29]dotriaconta-3(32),4,6,9(31),10,12,14,22,24,29-decaen-8-yl](^2H2)acetic acid] | 15.8
0.195 | Cc1c2ccc3c1nnn3CCCCOc1ccc3c(c1)CN([C@H](C)c1cc(ccc1Cl)[C@@H]2CC(=O)O)S(=O)(=O)O3 [Example 64a, [(2R,8S)-4-chloro-2,31-dimethyl-27,27-dioxo-21,26-dioxa-27λ^6-thia-1,14,15,16-tetraazahexacyclo[20.5.3.1^3,70.1^9,130.0^12,160.0^25,29]dotriaconta-3(32),4,6,9(31),10,12,14,22,24,29-decaen-8-yl]acetic acid] | 24
